Results as given in patent US20250041387A1, “POLYPEPTIDE SEQUENCE OF KDM6B AND APPLICATION OF KDM6B IN REGULATING AND CONTROLLING FUNCTION OF MESENCHYMAL STEM CELL” (BEIJING STOMATOLOGICAL HOSPITAL, CAPITAL MEDICAL UNIVERSITY, priority 2021, published 2025).

How the values were obtained:
[1] = molecular target: WDR5 synthetic protein (Homo sapiens, UniProt P61964); experiment: Polypeptide microarray of KDM6B incubated with biotin-labeled WDR5; type: binding; conditions: FIG. 3A, B; positive = optical density more than 30%
Excerpt: • (1) Synthesis of polypeptide chip: A polypeptide chip was designed by overlapping and synthesized according to the sequence of KDM6B protein, with a total of two arrays. • (2) Synthesis of polypeptide microarray: A matrix membrane was activated, and placed on a fully automated polypeptide chip synthesizer. A Fmoc-amino acid solution was automatically transferred to a specific position on the activated membrane according to the set procedure, to react with the membrane. The membrane was immersed sequentially into the blocking solution I and II to block side chains, and washed with dimethyl formamide (DMF). The membrane was placed in a deprotection solution to remove the Fmoc protective group at the amino-terminal, then washed with DMF, and dried with ethanol. The above steps were repeated until all polypeptide microarrays were completely synthesized. After the synthesis was completed, the protective groups of the side chains were removed with specific organic reagents. […] The control group was incubated with the blocking solution. • (6) Streptavidin-HRP incubation: The reaction reagent Streptavidin-HRP (High Sensitivity Streptavidin-HRP (prod #21133)) was diluted with the blocking solution in an ratio of 1:10000, and then the polypeptide microarray chip was incubated with 5 ml of the diluted Streptavidin-HRP under shaking at room temperature for 2 hours, and washed. • (7) Color development: ECL luminescence reagent was added, and digital imaging was performed on a Chempchemi digital imager. • (8) Scan of polypeptide microarray chip and data analysis of color spot: The colored polypeptide microarray chip was imaged at 425 nm using the Chempchemi Imaging System with 200 s exposure. The optical density of colored spots was analyzed using TotalLab image analysis software, and the optical density of each colored spot was calculated using the “Spot Edge Average” algorithm in the software, with the optical density of the surrounding background of each colored spot as a reference. […]

[2] = molecular target: KDM6B/WDR5 protein complex (Homo sapiens, UniProt P61964); experiment: Co-IP of KDM6B/WDR5 complex in bone marrow mesenchymal stem cells; type: cell-based; set-up: endogenous in cells; host or cells: bone marrow mesenchymal stem cells; conditions: FIG. 3C
Protocol: Protein was extracted from cells of knockout group and overexpression group using IP lysate. The knockout group cells SCAPs-Scramsh and SCAPs-KDM6Bsh, SCAPs-Scramsh and SCAPs-WDR5sh, BMSCs-Scramsh and BMSCs-WDR5sh were added with KDM6B antibody, WDR5 antibody, and IgG antibody, respectively, and then rotated on a shaker at 4° C. overnight. On the next day, the cells were added with Protein A/G beads and rotated on a rotary shaker at 4° C. for 2 hours. A complex of protein-antibody-agarose bead was formed, and the formation of a protein complex of KDM6B and WDR5WB was detected by WB. The overexpression group cells SCAPs-Vector, SCAPs-HA-KDM6B, SCAPs-HA-KDM6B-mut102, and SCAPs-HA-KDM6B-mut114 were added with ProteinA/G beads with HA antibody, and cells SCAPs Vector and SCAPs-Myc-WDR5 were added with ProteinA/G beads with Myc antibody. All cells were incubated overnight to form a complex of protein-antibody-agarose bead. The formation of a protein complex of KDM6B and WDR5 was detected by WB method. • (2) Grouping: Input group (loading amount of 25 μg); antibody group (loading amount of 800 μg, 2 μg of antibody); IgG group (loading amount of 800 μg, 2 μg of antibody). Samples were diluted with lysate. • (3) Preparation of protein A/G beads
The protein A/G beads were washed 4 times with PBS, and centrifuged at 2000 g for 2 minutes. The supernatant was carefully collected, and added with PBS to achieve a content of protein A/G beads of 50%. 30 μL of protein A/G beads was added to each tube, and rotated at 4 degrees overnight. • (4) The samples were centrifuged at 5000 rpm for 30 s at 4° C., and washed 4-5 times with PBS by inverted up and down. Then the samples were centrifuged, and the supernatant was discarded. The samples were added with 30 μL of 2× loading buffer, and placed at 100° C. for 5 minutes. • (5) The supernatant was subjected to electrophoresis.

In the case of “FITC-(Acp)-IVPMIHVSWNVARTVYGRKKRRQRRR [peptide 152]”, the “binding degree to WDR5 on polypeptide microarray (optical density of spots)” value [1] is reported as “higher binding degree” and the “opening/blocking of the binding of KDM6B/WDR5 protein complex (Co-IP)” value [2] is reported as “could not effectively block the binding”.
